Results on 8 compounds are retold here after patent US10618869B2, “Oligo-benzamide compounds and their use” (The Board of Regents of the University of Texas System, priority 2010, dated 2020).

“Also recorded” adds a separate entry of the source.

For the first test, the target named is T1, human AR (Homo sapiens, UniProt P10275).
T1 sequence (P10275 1-920): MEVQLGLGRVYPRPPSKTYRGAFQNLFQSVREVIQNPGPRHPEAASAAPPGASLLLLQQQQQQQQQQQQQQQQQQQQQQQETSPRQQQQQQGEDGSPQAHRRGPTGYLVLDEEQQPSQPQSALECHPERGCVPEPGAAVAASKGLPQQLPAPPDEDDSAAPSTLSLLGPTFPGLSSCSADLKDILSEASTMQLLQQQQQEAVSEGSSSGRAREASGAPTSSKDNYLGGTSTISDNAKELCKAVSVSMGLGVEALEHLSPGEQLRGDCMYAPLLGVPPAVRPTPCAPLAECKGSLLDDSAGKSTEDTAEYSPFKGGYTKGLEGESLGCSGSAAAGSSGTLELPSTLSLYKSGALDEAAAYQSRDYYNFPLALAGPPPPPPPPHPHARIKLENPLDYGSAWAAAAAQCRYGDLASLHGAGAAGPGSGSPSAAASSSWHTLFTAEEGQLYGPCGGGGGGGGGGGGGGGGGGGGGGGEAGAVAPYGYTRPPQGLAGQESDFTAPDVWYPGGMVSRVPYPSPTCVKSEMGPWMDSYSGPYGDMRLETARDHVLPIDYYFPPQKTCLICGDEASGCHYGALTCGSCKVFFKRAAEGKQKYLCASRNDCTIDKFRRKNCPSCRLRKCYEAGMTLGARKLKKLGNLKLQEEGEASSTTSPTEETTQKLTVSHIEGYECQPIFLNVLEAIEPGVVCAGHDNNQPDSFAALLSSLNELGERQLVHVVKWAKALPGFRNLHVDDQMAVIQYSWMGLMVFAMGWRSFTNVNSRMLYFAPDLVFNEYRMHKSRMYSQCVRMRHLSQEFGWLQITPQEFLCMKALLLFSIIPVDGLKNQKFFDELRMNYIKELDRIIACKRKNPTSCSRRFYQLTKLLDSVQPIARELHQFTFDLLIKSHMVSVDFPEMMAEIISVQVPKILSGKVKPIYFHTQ
Assay: not given
The note with it: LXXLL motif-bound AF-2 interface of human AR; PLoS Biology 2:e274, 2004; read-out: Kd of LXXLL peptide; cited from earlier work.
In the case of “SSRGLLWDLLTKDSR [LXXLL peptide co-crystallised with human AR AF-2]”, the Kd was 1800 nM.

The subject of the next test is PCa cell lines that contain AR. Put plainly: DHT-induced proliferation of prostate cancer cells (MTT assay). It is filed as cell-based. The conditions noted are these: DHT-induced proliferation, MTT assay; structure-function series. Here is the method: FIGS. 10A-E. D2 blocks proliferation of prostate cancer cells in vitro and in vivo (a) Effect of pretreatment with 100 nM of D1 and D2 on DHT-induced proliferation in multiple prostate cancer cell lines in MTT assay. Numbers are normalized to a baseline of 100, which represents the untreated rate of proliferation. (b) Effect of pretreatment with 100 nM of D1 and D2 on DHT-induced proliferation in LNCaPcells on a Cyquant assay. (c) Dose dependent curve of D2 on proliferation of LAPC4 cells. (d) Rescue of DHT induced proliferation by overexpression of PELP1 following suppression of DHT induced proliferation with 100 nM of D2. (e). Effect of direct intratumoral injections of D1 and D2 on the proliferation of prostate cancer xenografts in animal models: Following establishment of subcutaneous xenografts in animal models, daily direct intratumoral injections of D1 and D2 were performed. Bioluminesence imaging was used to track the growth of the tumors and the effect of D1 and D2 quantitated as shown in the graph.
The importance of PELP1 and AR interaction on DHT-mediated proliferation of prostate cancer cells were confirmed using rescue experiments, where D2 suppression of DHT-mediated proliferation was overcome by overexpression of PELP1 in LNCaP PCa cells.
In this experiment, cells were plated (2-10×10^3/well) in 96 well plates and subjected to androgen deprivation for 48 hours with phenol-red free RPMI and 1% charcoal stripped fetal bovine serum (CSF). Cells were then treated with either ethanol, EGF or DHT as a positive control for 48 hours. Peptidomimetics were added 2 hours prior to treatment. Cell proliferation was measured using the MTT colorimetric assay.
Cells were plated (2-10×10^3/well) in 96-well plates and subjected to androgen deprivation for 48 hours with phenol-red free RPMI and 1% charcoal stripped fetal bovine serum (CSF). Cells were then treated with either ethanol or DHT as a positive control for 48 hours Peptidomimetics were added 2 hours prior to treatment. Cell proliferation was measured using the MTT colorimetric assay.
Regarding `CC(C)COc1cc(C(=O)Nc2ccc(C(N)=O)cc2OCC(C)C)ccc1NC(=O)CCC(=O)O` [D2-12], the “activity on the proliferation of prostate cancer cells (FIGS. 17, 19A-N)” value (“activity on the proliferation” below) is given as “good activity”.

Turning to `CC(C)COc1cc(C(=O)Nc2ccc(C(N)=O)cc2OCCc2ccc3ccccc3c2)ccc1NC(=O)c1ccc([N+](=O)[O-])c(OCC(C)C)c1` [TK6-R], the “activity on the proliferation” value is recorded as “good activity”.

On to `C=C(C)COc1cc(C(=O)OC)ccc1NC(=O)c1ccc([N+](=O)[O-])c(OCC(=C)C)c1` [D29], for which the “activity on the proliferation” value is “good activity”.

For `COC(=O)c1ccc(NC(=O)c2ccc([N+](=O)[O-])c(NCC(C)C)c2)c(NCC(C)C)c1` [D2-47], the “activity on the proliferation” value is reported as “good activity”.

Consider `COC(=O)c1ccc(NC(=O)c2ccc(NC(=O)CN)c(OCC(C)C)c2)c(OCC(C)C)c1` [D2-4], for which the “activity on the proliferation” value is “maximal activity; also recorded: good activity”.

`CC(C)COc1cc(C(=O)Nc2ccc(C(=O)NCCCCO)cc2OCC(C)C)ccc1NC(=O)CN` [D2-26]: the “activity on the proliferation” value is “good activity”.

As to `CC(C)COc1cc(C(=O)Nc2ccc(C(=O)N(C(C)C)C(C)C)cc2OCC(C)C)ccc1NC(=O)CN` [D2-23], the “activity on the proliferation” value is on record as “good activity”.
